Source: patent publication US10449248B2, “Nutritional composition for improving the mammalian immune system” (N.V. Nutricia, priority 2008, dated 2019)

Test system: HepG2 cells
Test: Glutathione content of HepG2 cells with or without glutathione precursor amino acids
Format: cell-based
Conditions: in vitro model of normal liver, FIG. 4

N[C@@H](CS)C(=O)O [cysteine]
effect on the glutathione homeostasis in liver HepG2 cells: positive effect

NC(=O)CC[C@H](N)C(=O)O [glutamine]
effect on the glutathione homeostasis in liver HepG2 cells: positive effect
